Test results: patent US12491246B2, “Combination therapy of arms and natural killer cells” (KLEO PHARMACEUTICALS, INC., priority 2018, dated 2025)
“And” between values parts separate entries of the source, which are not always exact repeats. Equal entries are not always repeated.

What was measured:
LNCap cells = assay: Ternary complex formation of ARM, antibody and target cells (flow cytometry); type: cell-based, human; conditions: 20 ug/ml rabbit anti-DNP Alexa 488, 4 C 30 min, mean fluorescence
Procedure: Various technologies are suitable for assessing complex formation. One example such assay was described below. Those skilled in the art appreciate that one or more parameters and/or conditions may be adjusted and other assays/reagents/conditions, etc., can also be utilized.
Adherent cells (LNCap, CRL-1740, for example results below) were harvested using Accumax (Sigma-Aldrich A7089-100 ml). Compounds were diluted in DMSO (MP 191418) to 1000× the starting concentration used in the assay into a 96 well polypropylene plate (Corning 3357). They were then serially diluted in ½ log increments to generate 8-12 concentrations in DMSO (assay dependent). These DMSO stocks were then step diluted 1/10 into PBS (VWR Cat. #20012043). The step diluted compound range was then added into the polypropylene assay plate 1/100 the volume of the assay volume. The cells used for the assay were counted and centrifuged and resuspended at a concentration of 100,000 cells per 200 ul in Flow buffer: 1% BSA (American Bio AB01088-00100); 0.5 mM EDTA (VWR 45001-122); PBS (VWR Cat. #20012043) with 20 ug/ml rabbit anti-DNP Alexa 488 (Thermo Fisher Scientific A11097). The cells were then added into the polypropylene plate with the step diluted compounds and incubated at 4 C 30 min. At the end of the incubation, the cells were centrifuged and washed 2× with Flow buffer containing 0.5% Tween 20 (BP337-500). Samples were analyzed on a BD FacsCelesta. Mean fluorescence was analyzed using Graphpad Prism and curves were fit using log (inhibitor) vs. response-Variable slope (four parameters).

[1] = test system: LNCaP target cells and reporter cells with CD16a-158V/V variant; assay: ADCC reporter assay; type: cell-based, human
Procedure: In one example, LNCaP cells (human prostate cancer derived, ATCC: CRL-1740) were detached and re-suspended in 1% BSA in RPMI. Cell solution was filtered to remove cell aggregate (polystyrene tube with cell strainer, Corning: 352235) before being counted (Life Technologies Countless II cell counter) and plated (10,000 cells in 25 μL/well; Corning plates: 3917). The plated was centrifuged (5 min, 300×g) and the compound solutions (25 μL/well) were added immediately after. The antibody solutions (25 μL/well, IgG1 FC-Thermo Fisher: 10702HNAH5; Dintrophenyl-KLH polyclonal antibody-Thermo Fisher: A-6430) were added following a 45 min incubation at 37° C. The plate was then incubated with the antibody solution for 45 min to allow for cell-ARM-antibody ternary complex formation before the addition of the effector cells (60 K in 25 μL/well, ADCC reporter cells—Promega kit: G7018). The plate was centrifuged (5 min, 300×g) and effector cells were incubated for an 5 h at 37° C. Following the induction period the plate was equilibrated to 25° C. followed the addition of the luciferase substrate (75 μL/well, 1 vial in 10 mL of Bio-Glo assay buffer, Promega kit: G7018). The plate was then centrifuged (5 min, 300×g) and the luminescence was measured (Biotek Synergy H1 microplate reader).
An example set of data are present below:
LNCaP target cells and reporter cells with CD16a-158V/V variant

CIML NK cells = assay: CIML NK cell fratricide assay; type: cell-based; conditions: CIML NK cells; 3 μg/ml or 20.1 nM; 2 hours post-incubation
Procedure: (§1) PBMC isolation: Leukopheresis product from a donor with body mass index (BMI) between 19-25, under 50 years old, not on immuno-suppressive drugs for at least 2 weeks with an estimated PBMC cell count of >10^10 was obtained from Key Biologics (subject ID 20982200) and transported at ambient temperature. Leukopheresis bag was wiped down with 70% EtOH, a small slit was made and contents were pipetted off into tubes. Leukopak contents were diluted 1:1 with PBS without Ca++/Mg++ and 20 ml of this mixture was layered on top of 25 mL of Ficoll. Tubes were then centrifuged at 400 g for 30 minutes without brakes. PBMCs were harvested from the interface into separate tubes, and tubes were filled to 50 mL with PBS. Cells were centrifuged for 10 min at 120 g to get rid of platelets. Supernatant was poured off and cells were re-suspended in RPMI 10% FBS at a concentration of 7-10×10^6 cells/ml. Cells were cultured overnight at 37C in a 5% CO2 atmosphere until NK cell isolation.
(§2) NK cell isolation: PBMC were centrifuged at 400 g for 10 min and re-suspended in EasySep buffer. NK cells were isolated using NK cell isolation kits from STEMCELL Technologies according to kit's manufacturers' instructions. NK cell purity and phenotype was assessed by trypan Blue and flow cytometry using the following antibody cocktail: anti-CD56PE, CD3 APC, and viability was determined using staining with Trypan Blue exclusion dye, and by flow cytometry using Near Infra-Red Fixable viability dye (Thermo Fisher).
CIML NK cell generation: Isolated NK cells were re-suspended at 2×10^6 cells/ml in XVIVO 10% Human Serum and the following concentrations IL-15 (50 ng/ml), IL-12 (10 ng/ml), IL-18(50 ng/ml) for 12 to 18 hrs. […]
(§3) NK cell fratricide (death directed at NK cells in the same culture) was assessed by flow cytometry following a 2 hr incubation with the CD38 ARM at indicated concentrations in the presence or absence of 500 μg/ml intravenous immune globulin (IVIG). […]

non-CIML NK cells = assay: NK cell fratricide assay, non-CIML control NK cells; type: cell-based; conditions: daratumumab treatment, 2 hr
Procedure: as §1
as §2, with “Fisher). […]” for “Fisher).”
Purity and viability of NK cells and CIML NK cells: Among other things, the present disclosure provides highly pure and viable NK cell populations following isolation from PBMC. […] After an overnight incubation, purity and viability were assessed in the cultured cell populations. […]
as §3

## CC(C)C[C@@H]1NC(=O)[C@H](Cc2c[nH]cn2)NC(=O)[C@H](Cc2c[nH]c3ccccc23)NC(=O)[C@H](C)NC(=O)[C@@H](NC(=O)[C@H](CC(=O)O)NC(=O)CCOCCOCCOCCOCCOCCOCc2cn(CCCC[C@H](NC(=O)N[C@@H](CCC(=O)O)C(=O)O)C(=O)O)nn2)CSSC[C@@H](C(=O)N[C@H](C(=O)O)[C@@H](C)O)NC(=O)[C@H](Cc2c[nH]c3ccccc23)NC(=O)[C@H](C(C)C)NC(=O)[C@H](CC(C)C)NC(=O)[C@H](CCC(=O)O)NC(=O)CNC1=O [Compound I-33]
LNCap cells
  EC50: 3 nM

## CC(C)C[C@@H]1NC(=O)[C@H](Cc2c[nH]cn2)NC(=O)[C@H](Cc2c[nH]c3ccccc23)NC(=O)[C@H](C)NC(=O)[C@@H](NC(=O)[C@H](CC(=O)O)NC(=O)CCOCCOCCOCCOCCOCCOCCOCCOCc2cn(CCCC[C@H](NC(=O)N[C@@H](CCC(=O)O)C(=O)O)C(=O)O)nn2)CSSC[C@@H](C(=O)N[C@H](C(=O)O)[C@@H](C)O)NC(=O)[C@H](Cc2c[nH]c3ccccc23)NC(=O)[C@H](C(C)C)NC(=O)[C@H](CC(C)C)NC(=O)[C@H](CCC(=O)O)NC(=O)CNC1=O [Compound I-11]
[1]; I-11 3.2 nM, IgG1 FC (20 nM)
  Luminescence (background substracted): 165.5 and 123.5
[1]; I-11 3.2 nM, IgG1 FC (200 nM)
  Luminescence (background substracted): 172 and 189
[1]; I-11 3.2 nM, anti-DNP (20 ug/mL)
  Luminescence (background substracted): 128.5 and 86.5
[1]; I-11 16 nM, IgG1 FC (20 nM)
  Luminescence (background substracted): 667.5 and 621.5
[1]; I-11 16 nM, IgG1 FC (200 nM)
  Luminescence (background substracted): 1216 and 1040
[1]; I-11 16 nM, anti-DNP (20 ug/mL)
  Luminescence (background substracted): 934.5 and 855.5
[1]; I-11 80 nM, IgG1 FC (20 nM)
  Luminescence (background substracted): 1251.5 and 1037.5
[1]; I-11 80 nM, IgG1 FC (200 nM)
  Luminescence (background substracted): 1708 and 1823
[1]; I-11 80 nM, anti-DNP (20 ug/mL)
  Luminescence (background substracted): 1635.5 and 1605.5
[1]; I-11 400 nM, IgG1 FC (20 nM)
  Luminescence (background substracted): 797.5 and 679.5
[1]; I-11 400 nM, IgG1 FC (200 nM)
  Luminescence (background substracted): 1827 and 1494
[1]; I-11 400 nM, anti-DNP (20 ug/mL)
  Luminescence (background substracted): 1842.5 and 1696.5
[1]; I-11 2000 nM, IgG1 FC (20 nM)
  Luminescence (background substracted): 151.5 and 163.5
[1]; I-11 2000 nM, IgG1 FC (200 nM)
  Luminescence (background substracted): 1372 and 1118
[1]; I-11 2000 nM, anti-DNP (20 ug/mL)
  Luminescence (background substracted): 1374.5 and 1253.5
LNCap cells
  EC50: 6.6 nM

## CC(C)C[C@@H]1NC(=O)[C@H](Cc2c[nH]cn2)NC(=O)[C@H](Cc2c[nH]c3ccccc23)NC(=O)[C@H](C)NC(=O)[C@@H](NC(=O)[C@H](CC(=O)O)NC(=O)CCOCCOCCOCCOCCOCCOCCOCCOCc2cn(CCCC[C@H](NC(=O)N[C@@H](CCC(=O)O)C(=O)O)C(=O)O)nn2)CSSC[C@@H](C(=O)N[C@H](C(=O)O)[C@@H](C)O)NC(=O)[C@H](Cc2c[nH]c3ccccc23)NC(=O)[C@H](C(C)C)NC(=O)[C@H](CC(C)C)NC(=O)[C@H](CCC(=O)O)NC(=O)CNC1=O [Compound I-34]
LNCap cells
  EC50: 8.7 nM

## CC(C)C[C@@H]1NC(=O)[C@H](Cc2c[nH]cn2)NC(=O)[C@H](Cc2c[nH]c3ccccc23)NC(=O)[C@H](C)NC(=O)[C@@H](NC(=O)[C@@H](N)CC(=O)O)CSSC[C@@H](C(=O)N[C@H](C(=O)NCCOCCOCCOCCOCCOCCOCCOCCOCc2cn(CCCC[C@H](NC(=O)N[C@@H](CCC(=O)O)C(=O)O)C(=O)O)nn2)[C@@H](C)O)NC(=O)[C@H](Cc2c[nH]c3ccccc23)NC(=O)[C@H](C(C)C)NC(=O)[C@H](CC(C)C)NC(=O)[C@H](CCC(=O)O)NC(=O)CNC1=O [Compound I-16]
LNCap cells
  EC50: 7.4 nM

## daratumumab [reference compound]
CIML NK cells
  increase in the percentage of dead NK cells: 4%
non-CIML NK cells
  total increase in dead NK cells over DMSO treated control: 5.6%
